Drawing on ChEMBL document CHEMBL3045550, “Design, synthesis and biological activities of new strobilurin derivatives containing substituted pyrazoles” (2010), this text covers Activity for 16 molecules.

Common to all, as to assay type: functional
For experiment [1], the system named is Pseudoperonospora cubensis. Nature of the experiment: Antifungal activity against Pseudoperonospora cubensis infected cucumber leaves assessed as disease control at 3.12 mg/l after 5 days relative to control.
For a further experiment, the system named is Pyricularia oryzae. The experiment can be described thus: Antifungal activity against Magnaporthe oryzae infected 12 day old rice plant assessed as disease control at 400 mg/l after 6 days relative to control.
The subject of another experiment is Botrytis cinerea. The experiment can be described thus: Antifungal activity against Botryotinia fuckeliana infected cucumber leaves assessed as disease control at 400 mg/l after 4 days relative to control.
Experiment [2] has as its system Blumeria graminis f. sp. tritici. Nature of the experiment: Antifungal activity against Blumeria graminis f. sp. tritici infected seven-day-old wheat seedlings assessed as disease control at 12.5 mg/l after 7 days relative to control.
The test system is the same in experiment [3]. Nature of the experiment: Antifungal activity against Blumeria graminis f. sp. tritici infected seven-day-old wheat seedlings assessed as disease control at 400 mg/l after 7 days relative to control.
The test system of experiment [4] is Pseudoperonospora cubensis. Nature of the experiment: Antifungal activity against Pseudoperonospora cubensis infected cucumber leaves assessed as disease control at 25 mg/l after 5 days relative to control.
The subject of experiment [5] is Blumeria graminis f. sp. tritici. Nature of the experiment: Antifungal activity against Blumeria graminis f. sp. tritici infected seven-day-old wheat seedlings assessed as disease control at 1.56 mg/l after 7 days relative to control.
Experiment [6] relates to Pseudoperonospora cubensis. The experiment can be described thus: Antifungal activity against Pseudoperonospora cubensis infected cucumber leaves assessed as disease control at 6.25 mg/l after 5 days relative to control.
The subject of the next experiment is Tetranychus cinnabarinus. Nature of the experiment: Acaricidal activity against Tetranychus cinnabarinus (carmine spider mite) in kidney bean plants assessed as mortality at 600 mg/l after 48 hr relative to control.
Experiment [7] relates to Pseudoperonospora cubensis. Nature of the experiment: Antifungal activity against Pseudoperonospora cubensis infected cucumber leaves assessed as disease control at 400 mg/l after 5 days relative to control.

Take `CO/C=C(/C(=O)OC)c1ccccc1COc1c(C)c(-c2ccc(Cl)cc2)nn1C` [METHYL 2-(2-((3-(4-CHLOROPHENYL)-1,4-DIMETHYL-1H-PYRAZOL-5-YLOXY)METHYL)PHENYL)-3-METHOXYACRYLATE]: the Activity came to 0% in experiment [1]; 0% with Pyricularia oryzae; 0% in the experiment on Botrytis cinerea; 100% in experiment [2]; 100% in [3]; 0% in experiment [4]. Besides, the Activity in [5] came to 100%; in experiment [6], 0%; in the experiment on Tetranychus cinnabarinus, 60%; in experiment [7], 95%.

Regarding `CO/N=C(/C(=O)OC)c1ccccc1COc1ccccc1C` [KRESOXIM-METHYL], the Activity in [1] is reported as 0%; in the experiment with Pyricularia oryzae, 100%; in the experiment with Botrytis cinerea, 100%; in [2], 100%; in experiment [3], 100%; in [4] it was 35%. For the same molecule, the Activity in [5] is 100%; in experiment [6], 0%.

As to `CO/C=C(/C(=O)OC)c1ccccc1COc1c(C)c(-c2ccc(OCC(F)(F)F)cc2)nn1C` [METHYL 2-(2-((1,4-DIMETHYL-3-(4-(2,2,2-TRIFLUOROETHOXY)PHENYL)-1H-PYRAZOL-5-YLOXY)METHYL)PHENYL)-3-METHOXYACRYLATE], the Activity is on record as 0% in experiment [1]; 100% in the experiment on Pyricularia oryzae; 100% in the experiment with Botrytis cinerea; 100% in experiment [2]; 100% in experiment [3]; 40% in [4]. Also, the Activity in experiment [5] was 65%; in [6] it was 0%; in the experiment on Tetranychus cinnabarinus, 60%; in experiment [7] it was 100%.

Consider `CO/C=C(/C(=O)OC)c1ccccc1COc1cc(-c2ccc(OCC(F)(F)F)cc2)nn1C`, for which the Activity came out at 0% in [1]; 0% with Pyricularia oryzae; 0% in the experiment with Botrytis cinerea; 60% in [3]; 90% in experiment [4]; 0% in [6]. Moreover, the values for the Activity (in the experiment with Tetranychus cinnabarinus; in experiment [7]) were 0% and 100%, respectively.

On to `CO/C=C(/C(=O)OC)c1ccccc1COc1cc(-c2ccc(Oc3ccccc3)cc2)nn1C`, for which the Activity stood at 0% in experiment [1]; 0% with Pyricularia oryzae; 0% in the experiment on Botrytis cinerea; 0% in [3]; 100% in experiment [4]; 0% in experiment [6]. Also, the Activity with Tetranychus cinnabarinus stood at 0%; in [7] it was 100%.

As to `CO/C=C(/C(=O)OC)c1ccccc1COc1cc(-c2ccc([N+](=O)[O-])cc2)nn1C`, the Activity in experiment [1] is recorded as 50%; with Pyricularia oryzae, 99%; in the experiment with Botrytis cinerea it was 0%; in [2] it was 100%; in experiment [3], 100%; in [4], 100%. The Activity stood at 95% in experiment [5], 70% in [6], 0% in the experiment with Tetranychus cinnabarinus and 100% in [7].

On to `CO/C=C(/C(=O)OC)c1ccccc1COc1cc(-c2ccc(SC)cc2)nn1C` [METHYL 3-METHOXY-2-(2-((1-METHYL-3-(4-(METHYLTHIO)PHENYL)-1H-PYRAZOL-5-YLOXY)METHYL)PHENYL)ACRYLATE], for which the Activity is 0% in experiment [1]; 90% in the experiment on Pyricularia oryzae; 0% in the experiment with Botrytis cinerea; 0% in [3]; 100% in experiment [4]; 35% in [6]. The figures for the Activity (in the experiment with Tetranychus cinnabarinus; in experiment [7]) were 0% and 100%, respectively.

`CO/C=C(/C(=O)OC)c1ccccc1COc1cc(-c2ccc(C)cc2)nn1C` [METHYL 3-METHOXY-2-(2-((1-METHYL-3-P-TOLYL-1H-PYRAZOL-5-YLOXY)METHYL)PHENYL)ACRYLATE]: the Activity worked out at 0% in [1]; 0% in the experiment on Pyricularia oryzae; 0% in the experiment with Botrytis cinerea; 35% in experiment [2]; 100% in experiment [3]; 0% in experiment [4]. In addition, the Activity amounted to 0% in [5], 0% in experiment [6], 0% with Tetranychus cinnabarinus and 100% in [7].

Regarding `CO/C=C(/C(=O)OC)c1ccccc1COc1cc(-c2ccc(-c3ccc(Cl)cc3)cc2)nn1C`, the Activity came to 0% in experiment [1]; 0% with Pyricularia oryzae; 0% in the experiment on Botrytis cinerea; 95% in experiment [2]; 100% in experiment [3]; 100% in experiment [4]. Moreover, the Activity in experiment [5] worked out at 0%; in [6], 0%; in the experiment with Tetranychus cinnabarinus, 0%; in experiment [7], 100%.

As for `CO/C=C(/C(=O)OC)c1ccccc1COc1cc(-c2ccc(OC)cc2)nn1C` [METHYL 3-METHOXY-2-(2-((3-(4-METHOXYPHENYL)-1-METHYL-1H-PYRAZOL-5-YLOXY)METHYL)PHENYL)ACRYLATE], the Activity in experiment [1] came to 0%; in the experiment with Pyricularia oryzae it was 100%; in the experiment with Botrytis cinerea, 50%; in [2], 65%; in [3], 100%; in experiment [4], 90%. Moreover, the Activity in [5] was 0%; in experiment [6] it was 15%; in the experiment on Tetranychus cinnabarinus it was 0%; in [7], 95%.

`CO/C=C(/C(=O)OC)c1ccccc1COc1cc(-c2ccc(F)cc2)nn1C` [METHYL 2-(2-((3-(4-FLUOROPHENYL)-1-METHYL-1H-PYRAZOL-5-YLOXY)METHYL)PHENYL)-3-METHOXYACRYLATE]: the Activity in experiment [1] was determined as 75%; in the experiment with Pyricularia oryzae it was 50%; in the experiment on Botrytis cinerea, 100%; in experiment [3], 30%; in experiment [4], 100%; in experiment [6], 100%. Also, the Activity in the experiment with Tetranychus cinnabarinus was 0%; in [7], 100%.

As to `CO/C=C(/C(=O)OC)c1ccccc1COc1cc(-c2ccc(C(C)(C)C)cc2)nn1C` [METHYL 2-(2-((3-(4-TERT-BUTYLPHENYL)-1-METHYL-1H-PYRAZOL-5-YLOXY)METHYL)PHENYL)-3-METHOXYACRYLATE], the Activity in the experiment with Pyricularia oryzae amounted to 100%; in the experiment on Botrytis cinerea, 50%; in [3], 70%; in experiment [4], 15%; in the experiment on Tetranychus cinnabarinus, 0%; in [7] it was 100%.

Consider `CO/C=C(/C(=O)OC)c1ccccc1COc1cc(-c2ccc(Cl)cc2Cl)nn1C` [METHYL 2-(2-((3-(2,4-DICHLOROPHENYL)-1-METHYL-1H-PYRAZOL-5-YLOXY)METHYL)PHENYL)-3-METHOXYACRYLATE], for which the Activity in experiment [1] stood at 20%; in the experiment on Pyricularia oryzae, 0%; in the experiment on Botrytis cinerea, 0%; in experiment [2], 100%; in experiment [3] it was 100%; in [4], 100%. In addition, the Activity was 0% in experiment [5], 45% in [6], 0% in the experiment on Tetranychus cinnabarinus and 100% in experiment [7].

Regarding `CO/C=C(/C(=O)OC)c1ccccc1COc1cc(-c2ccccc2OC)nn1C`, the Activity is given as 0% in [1]; 100% in the experiment on Pyricularia oryzae; 50% with Botrytis cinerea; 100% in [2]; 100% in [3]; 50% in experiment [4]. In addition, the Activity in [5] is 35%; in [6], 0%; in the experiment with Tetranychus cinnabarinus it was 0%; in experiment [7], 100%.

On to `CO/C=C(/C(=O)OC)c1ccccc1COc1cc(-c2ccccc2)nn1C` [METHYL 3-METHOXY-2-(2-((1-METHYL-3-PHENYL-1H-PYRAZOL-5-YLOXY)METHYL)PHENYL)ACRYLATE], for which the Activity in experiment [1] came to 0%; in the experiment on Pyricularia oryzae, 0%; in the experiment with Botrytis cinerea, 0%; in experiment [2], 0%; in experiment [3], 100%; in experiment [4], 0%. Moreover, the Activity in [5] came to 0%; in experiment [6], 0%; in the experiment with Tetranychus cinnabarinus, 0%; in [7], 100%.

Turning to `CO/C=C(/C(=O)OC)c1ccccc1Oc1cc(Oc2ccccc2C#N)ncn1` [AZOXYSTROBIN], the Activity (in experiment [1]; with Pyricularia oryzae; in the experiment with Botrytis cinerea; in experiment [2]; in [3]; in experiment [4]) was 100% throughout. For the same molecule, the Activity is listed as 60% in experiment [5], 95% in experiment [6] and 100% in [7].
